The NIST ThermoML archive (doi:10.1021/je8004062)
Numbers after ± are expanded uncertainties.

Test: mn = molality of the nth substance listed, in mol/kg
Conditions: 101 kPa, Liquid

With `[Cl-].[Na+]` [sodium chloride] + O the mass density (293.15 K, m1 = 0.2076) was 1006.3 ± 0.1 kg/m3, the viscosity (293.15 K, m1 = 0.2076) was 1.012 ± 0.013 mPa·s and the viscosity (293.15 K, m1 = 0.3959) was 1.031 ± 0.013 mPa·s. It also gave a mass density (293.15 K, m1 = 0.5997) of 1022 ± 0.1 kg/m3, a viscosity (293.15 K, m1 = 0.5997) of 1.054 ± 0.013 mPa·s and a mass density (293.15 K, m1 = 0.7817) of 1029 ± 0.1 kg/m3. It also gave a viscosity (293.15 K, m1 = 0.7817) of 1.073 ± 0.013 mPa·s, a mass density (293.15 K, m1 = 1.01) of 1037.6 ± 0.1 kg/m3 and a viscosity (293.15 K, m1 = 1.01) of 1.098 ± 0.013 mPa·s. The mass density (293.15 K, m1 = 1.199) was 1044.5 ± 0.1 kg/m3, the viscosity (293.15 K, m1 = 1.199) was 1.117 ± 0.014 mPa·s and the mass density (293.15 K, m1 = 1.502) was 1055.4 ± 0.2 kg/m3. The viscosity (293.15 K, m1 = 1.502) was 1.151 ± 0.014 mPa·s, the mass density (293.15 K, m1 = 1.794) was 1065.7 ± 0.2 kg/m3 and the viscosity (293.15 K, m1 = 1.794) was 1.184 ± 0.014 mPa·s. The mass density (293.15 K, m1 = 2.004) was 1073.1 ± 0.2 kg/m3, the viscosity (293.15 K, m1 = 2.004) was 1.208 ± 0.015 mPa·s and the mass density (293.15 K, m1 = 2.409) was 1086.9 ± 0.2 kg/m3. The viscosity (293.15 K, m1 = 2.409) was 1.256 ± 0.015 mPa·s, the mass density (293.15 K, m1 = 3) was 1106.5 ± 0.2 kg/m3 and the viscosity (293.15 K, m1 = 3) was 1.332 ± 0.016 mPa·s. The mass density (293.15 K, m1 = 3.595) was 1125.5 ± 0.2 kg/m3, the viscosity (293.15 K, m1 = 3.595) was 1.412 ± 0.017 mPa·s and the mass density (293.15 K, m1 = 4.186) was 1143.5 ± 0.2 kg/m3. The viscosity (293.15 K, m1 = 4.186) was 1.496 ± 0.018 mPa·s, the mass density (293.15 K, m1 = 4.812) was 1162.1 ± 0.2 kg/m3 and the viscosity (293.15 K, m1 = 4.812) was 1.592 ± 0.019 mPa·s. It also gave a mass density (298.15 K, m1 = 0.2076) of 1005.7 ± 0.1 kg/m3, a viscosity (298.15 K, m1 = 0.2076) of 0.9082 ± 0.011 mPa·s and a mass density (298.15 K, m1 = 0.3959) of 1013.2 ± 0.1 kg/m3. For the same compound, the viscosity (298.15 K, m1 = 0.3959) was 0.9237 ± 0.011 mPa·s, the mass density (298.15 K, m1 = 0.5997) was 1021.2 ± 0.1 kg/m3 and the viscosity (298.15 K, m1 = 0.5997) was 0.9408 ± 0.012 mPa·s. It also gave a mass density (298.15 K, m1 = 0.7817) of 1028.1 ± 0.1 kg/m3, a viscosity (298.15 K, m1 = 0.7817) of 0.9565 ± 0.012 mPa·s and a viscosity (298.15 K, m1 = 1.01) of 0.9769 ± 0.012 mPa·s. It also gave a mass density (298.15 K, m1 = 1.199) of 1043.4 ± 0.1 kg/m3, a viscosity (298.15 K, m1 = 1.199) of 0.9944 ± 0.012 mPa·s and a mass density (298.15 K, m1 = 1.502) of 1054.3 ± 0.2 kg/m3. For the same compound, the viscosity (298.15 K, m1 = 1.502) was 1.024 ± 0.013 mPa·s, the mass density (298.15 K, m1 = 1.794) was 1064.5 ± 0.2 kg/m3 and the viscosity (298.15 K, m1 = 1.794) was 1.054 ± 0.013 mPa·s. It also gave a mass density (298.15 K, m1 = 2.004) of 1071.8 ± 0.2 kg/m3, a viscosity (298.15 K, m1 = 2.004) of 1.077 ± 0.013 mPa·s and a mass density (298.15 K, m1 = 2.409) of 1085.5 ± 0.2 kg/m3. The viscosity (298.15 K, m1 = 2.409) was 1.124 ± 0.014 mPa·s, the mass density (298.15 K, m1 = 3) was 1105 ± 0.2 kg/m3 and the viscosity (298.15 K, m1 = 3) was 1.2 ± 0.015 mPa·s. The mass density (298.15 K, m1 = 3.595) was 1123.8 ± 0.2 kg/m3, the viscosity (298.15 K, m1 = 3.595) was 1.288 ± 0.015 mPa·s and the mass density (298.15 K, m1 = 4.186) was 1141.7 ± 0.2 kg/m3. It also gave a viscosity (298.15 K, m1 = 4.186) of 1.385 ± 0.017 mPa·s, a mass density (298.15 K, m1 = 4.812) of 1160 ± 0.2 kg/m3 and a viscosity (298.15 K, m1 = 4.812) of 1.502 ± 0.018 mPa·s. It also gave a mass density (303.15 K, m1 = 0.2076) of 1004 ± 0.1 kg/m3, a viscosity (303.15 K, m1 = 0.2076) of 0.8115 ± 0.01 mPa·s and a mass density (303.15 K, m1 = 0.3959) of 1011.7 ± 0.1 kg/m3. The viscosity (303.15 K, m1 = 0.3959) was 0.8306 ± 0.01 mPa·s, the viscosity (303.15 K, m1 = 0.5997) was 0.8489 ± 0.011 mPa·s and the mass density (303.15 K, m1 = 0.7817) was 1026.4 ± 0.1 kg/m3. It also gave a viscosity (303.15 K, m1 = 0.7817) of 0.8638 ± 0.011 mPa·s, a mass density (303.15 K, m1 = 1.01) of 1034.8 ± 0.1 kg/m3 and a viscosity (303.15 K, m1 = 1.01) of 0.8825 ± 0.011 mPa·s. For the same compound, the mass density (303.15 K, m1 = 1.199) was 1041.4 ± 0.1 kg/m3, the viscosity (303.15 K, m1 = 1.199) was 0.898 ± 0.011 mPa·s and the mass density (303.15 K, m1 = 1.502) was 1052.3 ± 0.1 kg/m3. For the same compound, the viscosity (303.15 K, m1 = 1.502) was 0.9236 ± 0.011 mPa·s, the mass density (303.15 K, m1 = 1.794) was 1062.5 ± 0.2 kg/m3 and the viscosity (303.15 K, m1 = 1.794) was 0.9496 ± 0.012 mPa·s. For the same compound, the mass density (303.15 K, m1 = 2.004) was 1069.7 ± 0.2 kg/m3, the viscosity (303.15 K, m1 = 2.004) was 0.9695 ± 0.012 mPa·s and the mass density (303.15 K, m1 = 2.409) was 1083.4 ± 0.2 kg/m3. For the same compound, the viscosity (303.15 K, m1 = 2.409) was 1.011 ± 0.013 mPa·s, the mass density (303.15 K, m1 = 3) was 1102.7 ± 0.2 kg/m3 and the viscosity (303.15 K, m1 = 3) was 1.08 ± 0.013 mPa·s. It also gave a mass density (303.15 K, m1 = 3.595) of 1121.4 ± 0.2 kg/m3, a viscosity (303.15 K, m1 = 3.595) of 1.162 ± 0.014 mPa·s and a mass density (303.15 K, m1 = 4.186) of 1139.2 ± 0.2 kg/m3. It also gave a viscosity (303.15 K, m1 = 4.186) of 1.256 ± 0.015 mPa·s, a mass density (303.15 K, m1 = 4.812) of 1157.5 ± 0.2 kg/m3 and a viscosity (303.15 K, m1 = 4.812) of 1.373 ± 0.016 mPa·s.
